In ChEMBL document CHEMBL3603789, “N-Lipidated Peptide Dimers: Effective Antibacterial Agents against Gram-Negative Pathogens through Lipopolysaccharide Permeabilization” (J Med Chem, 2015):
≈ marks a conversion by molar mass, not a printed value. Calls of active or inactive are those of the source. The calls are words filed in the database; no cut-off is given here. Bridge positions count the residues as written; N and C are the ends. Peptide text beside a SMILES is read from it. I, II: the chains in the order shown. * marks the point of attachment. Palmitoyl = CCCCCCCCCCCCCCCC(=O)*; Lauroyl = CCCCCCCCCCCC(=O)*; Decanoyl = CCCCCCCCCC(=O)*; Octanoyl = CCCCCCCC(=O)*

How the values were obtained:
[1] = Toxicity in New Zealand white rabbit erythrocytes assessed as hemolytic activity after 60 mins; type: cell-based, Oryctolagus cuniculus; conditions: erythrocyte, 1 h
Klebsiella pneumoniae [2] = assay: Antibacterial activity against Klebsiella pneumoniae DM4299 after 24 hrs by broth microdilution method; type: functional; conditions: DM4299, 24 h
Pseudomonas aeruginosa [3] = assay: Antibacterial activity against Pseudomonas aeruginosa DM23155 after 24 hrs by broth microdilution method; type: functional; conditions: DM23155, 24 h
Escherichia coli [4] = assay: Antibacterial activity against Escherichia coli ATCC 25922 after 24 hrs by broth microdilution method; type: functional; conditions: ATCC 25922, 24 h
Pseudomonas aeruginosa [5] = assay: Antibacterial activity against Pseudomonas aeruginosa DR18531 after 24 hrs by broth microdilution method; type: functional
Pseudomonas aeruginosa [6] = assay: Antibacterial activity against Pseudomonas aeruginosa DM4150R after 24 hrs by broth microdilution method; type: functional
Pseudomonas aeruginosa [7] = assay: Antibacterial activity against Pseudomonas aeruginosa DM23257 after 24 hrs by broth microdilution method; type: functional
Pseudomonas aeruginosa [8] = assay: Antibacterial activity against Pseudomonas aeruginosa DM23376 after 24 hrs by broth microdilution method; type: functional
Pseudomonas aeruginosa [9] = assay: Antibacterial activity against Pseudomonas aeruginosa DU14476 after 24 hrs by broth microdilution method; type: functional
Pseudomonas aeruginosa [10] = assay: Antibacterial activity against Pseudomonas aeruginosa DR5790 after 24 hrs by broth microdilution method; type: functional
Pseudomonas aeruginosa [11] = assay: Antibacterial activity against Pseudomonas aeruginosa DR4877 after 24 hrs by broth microdilution method; type: functional
Pseudomonas aeruginosa [12] = assay: Antibacterial activity against Pseudomonas aeruginosa ATCC 9027 after 24 hrs by broth microdilution method; type: functional
Pseudomonas aeruginosa [13] = assay: Antibacterial activity against Pseudomonas aeruginosa ATCC 27853 after 24 hrs by broth microdilution method; type: functional
Lipopolysaccharide (LPS) [14] = assay: Displacement of dansylcadaverine from Escherichia coli 0111:B4 LPS at 15 to 30 uM after 5 mins by high-throughput fluorescence displacement assay
Lipopolysaccharide (LPS) [15] = assay: Induction of Escherichia coli 0111:B4 LPS neutralization using p-nitroaniline assessed as concentration required to neutralize 50% after 1 hr by limulus amebocyte lysate assay
Pseudomonas aeruginosa [16] = assay: Induction of 1-N-phenylnaphthylamine uptake in Pseudomonas aeruginosa DM23155 at 400 uM after 1 hr by fluorescence assay relative to polymyxin B; type: functional
[17] = Induction of calcein leakage from DOPC artificial membrane at 1:32 ratio of compound to lipid by fluorescence assay; type: physicochemical
Escherichia coli [18] = assay: Antibacterial activity against Escherichia coli DS17232 after 24 hrs by broth microdilution method; type: functional
Escherichia coli [19] = assay: Antibacterial activity against Escherichia coli DM17528 after 24 hrs by broth microdilution method; type: functional
Klebsiella pneumoniae [20] = assay: Antibacterial activity against Klebsiella pneumoniae DS07955 after 24 hrs by broth microdilution method; type: functional
Klebsiella pneumoniae [21] = assay: Antibacterial activity against Klebsiella pneumoniae DS16260 after 24 hrs by broth microdilution method; type: functional
Klebsiella pneumoniae [22] = assay: Antibacterial activity against Klebsiella pneumoniae DU31158 after 24 hrs by broth microdilution method; type: functional
Klebsiella pneumoniae [23] = assay: Antibacterial activity against Klebsiella pneumoniae DB55301 after 24 hrs by broth microdilution method; type: functional
[24] = Self-aggregation activity of the compound using 8-(Phenylamino)-1-naphthalenesulfonic acid as fluorescent probe at 300 uM by fluorescence assay; type: physicochemical
Pseudomonas aeruginosa [25] = assay: Induction of cytoplasmic membrane depolarization in Pseudomonas aeruginosa DM23155 at 4 times MIC after 1 hr by fluorescence assay; type: functional, organism-based
Pseudomonas aeruginosa [26] = assay: Induction of cytoplasmic membrane disruption in Pseudomonas aeruginosa DM23155 assessed as membrane integrity at 1 to 2 times MIC after 1 hr by fluorescence assay; type: functional
[27] = Induction of calcein leakage from DOPE/DOPG artificial membrane at 1:32 ratio of compound to lipid by fluorescence assay; type: physicochemical
[28] = Self-aggregation activity of the compound using 8-(Phenylamino)-1-naphthalenesulfonic acid as fluorescent probe at 20 uM by fluorescence assay; type: physicochemical
[29] = Self-aggregation activity of the compound using 8-(Phenylamino)-1-naphthalenesulfonic acid as fluorescent probe at 100 uM by fluorescence assay; type: physicochemical
[30] = Self-aggregation activity of the compound using 8-(Phenylamino)-1-naphthalenesulfonic acid as fluorescent probe at 300 uM by fluorescence assay in presence of 150 mM of NaCl; type: physicochemical

| Compound | HC10 [1] [µg/mL] | MIC (Klebsiella pneumoniae [2]) [µM] | MIC (Pseudomonas aeruginosa [3]) [µM] | MIC (Escherichia coli [4]) [µM] | MIC (Pseudomonas aeruginosa [5]; DR18531, 24 h) [µM] | MIC (Pseudomonas aeruginosa [6]) [µM] | MIC (Pseudomonas aeruginosa [7]; DM23257, 24 h) [µM] | MIC (Pseudomonas aeruginosa [8]; DM23376, 24 h) [µM] | MIC (Pseudomonas aeruginosa [9]; DU14476, 24 h) [µM] | MIC (Pseudomonas aeruginosa [10]; DR5790, 24 h) [µM] | MIC (Pseudomonas aeruginosa [11]; DR4877, 24 h) [µM] | MIC (Pseudomonas aeruginosa [12]; ATCC 9027, 24 h) [µM] | MIC (Pseudomonas aeruginosa [13]; ATCC 27853, 24 h) [µM] | Activity (Lipopolysaccharide (LPS) [14]) [%] | EC50 (Lipopolysaccharide (LPS) [15]) [µM] | Activity (Pseudomonas aeruginosa [16]) [%] | Activity [17] | Activity (Pseudomonas aeruginosa [25]) | also measured |
| --- | --- | --- | --- | --- | --- | --- | --- | --- | --- | --- | --- | --- | --- | --- | --- | --- | --- | --- | --- |
| CCCCCCCCCC(=O)N[C@@H](CCCNC(=N)N)C(=O)NCC(=O)N[C@@H](CCCNC(=N)N)C(=O)N[C@@H](CCCCN)C(=O)NCC(=O)NCC(=O)N[C@@H](CCCNC(=N)N)C(=O)N[C@@H](CCCNC(=N)N)C(=O)NCCCC[C@H](NC(=O)[C@H](CCCNC(=N)N)NC(=O)[C@H](CCCNC(=N)N)NC(=O)CNC(=O)CNC(=O)[C@H](CCCCN)NC(=O)[C@H](CCCNC(=N)N)NC(=O)CNC(=O)[C@H](CCCNC(=N)N)NC(=O)CCCCCCCCC)C(=O)N[C@@H](CCCCN)C(=O)O (I: Decanoyl-RGRKGGRRKK-OH / II: Decanoyl-RGRKGGRR; amide I:9-II:C) | > 10000 | 3 (≈ 7.29 µg/mL) | 3 (≈ 7.29 µg/mL) | 6 (≈ 14.6 µg/mL) | 6 (≈ 14.6 µg/mL) | 6 (≈ 14.6 µg/mL) | 6 (≈ 14.6 µg/mL) | 6 (≈ 14.6 µg/mL) | 3 (≈ 7.29 µg/mL) | 3 (≈ 7.29 µg/mL) | 6 (≈ 14.6 µg/mL) | 6 (≈ 14.6 µg/mL) | 3 (≈ 7.29 µg/mL) | 122 | 142 | 44.3 | Active |  |  |
| GENTAMICIN |  |  |  |  |  | 0.5 |  |  |  |  |  |  |  |  |  |  |  |  | MIC (Pseudomonas aeruginosa [5]): 30 µM; MIC (Pseudomonas aeruginosa [7]): 0.5 µM; MIC (Pseudomonas aeruginosa [8]): 0.5 µM; MIC (Pseudomonas aeruginosa [9]): 25 µM; MIC (Pseudomonas aeruginosa [10]): 25 µM; MIC (Pseudomonas aeruginosa [11]): > 60 µM; MIC (Pseudomonas aeruginosa [12]): 0.25 µM; MIC (Pseudomonas aeruginosa [13]): 0.5 µM; MIC (Escherichia coli [18]): 1000 nM; MIC (Escherichia coli [19]): < 250 nM; MIC (Klebsiella pneumoniae [20]): > 60 µM; MIC (Klebsiella pneumoniae [21]): 2000 nM; MIC (Klebsiella pneumoniae [22]): < 250 nM; MIC (Klebsiella pneumoniae [23]): 7.5 µM |
| CCCCCCCCCCCC(=O)N[C@@H](CCCNC(=N)N)C(=O)NCC(=O)N[C@@H](CCCNC(=N)N)C(=O)N[C@@H](CCCCN)C(=O)N[C@H](C(=O)N[C@H](C(=O)N[C@@H](CCCNC(=N)N)C(=O)N[C@@H](CCCNC(=N)N)C(=O)NCCCC[C@H](NC(=O)[C@H](CCCNC(=N)N)NC(=O)[C@H](CCCNC(=N)N)NC(=O)[C@@H](NC(=O)[C@@H](NC(=O)[C@H](CCCCN)NC(=O)[C@H](CCCNC(=N)N)NC(=O)CNC(=O)[C@H](CCCNC(=N)N)NC(=O)CCCCCCCCCCC)C(C)C)C(C)C)C(=O)N[C@@H](CCCCN)C(=O)O)C(C)C)C(C)C (I: Lauroyl-RGRKVVRRKK-OH / II: Lauroyl-RGRKVVRR; amide I:9-II:C) | 543 | 6 (≈ 15.9 µg/mL) | 6 (≈ 15.9 µg/mL) | 6 (≈ 15.9 µg/mL) |  |  |  |  |  |  |  |  |  | 130 | 29 |  | Active | Active | Activity [24]: 27.6%; Activity (Pseudomonas aeruginosa [26]): <50%; Activity [27]: Active |
| CCCCCCCCCCCCCCCC(=O)N[C@@H](CCCNC(=N)N)C(=O)NCC(=O)N[C@@H](CCCNC(=N)N)C(=O)N[C@@H](CCCCN)C(=O)NCC(=O)NCC(=O)N[C@@H](CCCNC(=N)N)C(=O)N[C@@H](CCCNC(=N)N)C(=O)NCCCC[C@H](NC(=O)[C@H](CCCNC(=N)N)NC(=O)[C@H](CCCNC(=N)N)NC(=O)CNC(=O)CNC(=O)[C@H](CCCCN)NC(=O)[C@H](CCCNC(=N)N)NC(=O)CNC(=O)[C@H](CCCNC(=N)N)NC(=O)CCCCCCCCCCCCCCC)C(=O)N[C@@H](CCCCN)C(=O)O (I: Palmitoyl-RGRKGGRRKK-OH / II: Palmitoyl-RGRKGGRR; amide I:9-II:C) | 64 | 10 (≈ 26 µg/mL) | 10 (≈ 26 µg/mL) | 10 (≈ 26 µg/mL) |  |  |  |  |  |  |  |  |  | 106 | 43 | 36.5 | Active |  | Activity [28]: 50%; Activity [29]: 50%; Activity [30]: Active |
| COc1c(N2CCNC(C)C2)c(F)cc2c(=O)c(C(=O)O)cn(C3CC3)c12 (stereo not drawn) [GATIFLOXACIN] |  |  |  |  | 8 (≈ 3 µg/mL) | 2 (≈ 0.751 µg/mL) | 2 (≈ 0.751 µg/mL) | 4 (≈ 1.5 µg/mL) | 64 (≈ 24 µg/mL) | 64 (≈ 24 µg/mL) | 32 (≈ 12 µg/mL) | 2 (≈ 0.751 µg/mL) | 4 (≈ 1.5 µg/mL) |  |  |  |  |  |  |
| CCCCCCCC(=O)N[C@@H](CCCNC(=N)N)C(=O)NCC(=O)N[C@@H](CCCNC(=N)N)C(=O)N[C@@H](CCCCN)C(=O)NCC(=O)NCC(=O)N[C@@H](CCCNC(=N)N)C(=O)N[C@@H](CCCNC(=N)N)C(=O)N[C@@H](CCCCN)C(=O)N[C@@H](CCCCN)C(=O)O (Octanoyl-RGRKGGRRKK-OH) | > 10000 | 40 (≈ 53 µg/mL) | 10 (≈ 13.2 µg/mL) | 6 (≈ 7.95 µg/mL) |  |  |  |  |  |  |  |  |  |  |  |  |  | Active |  |
